Reference: US20090075309A1, “Bisdeoxycoelenterazine derivatives, methods of use, and BRET2 systems” (priority 2007, published 2009)
Where two headings read alike, the source gives them in different places.

Molecular target: HT1080 cells stably expressing the GFP2-RLuc8 fusion protein (Renilla reniformis, UniProt P27652, A143M/A55T/C124A/K136R/M185V/M253L/S130A/S287L)
Details: for signal half-life (time required for the initial light flux to fall to its half-value): HT1080 GFP2-RLuc8 cells, 60 μM derivatives; for intensity of the light signal among the four derivatives: FIG. 3A
Description: The kinetics of the bioluminescent reactions was evaluated by exposing the derivatives to HT1080 cells stably expressing the GFP2-RLuc8 fusion protein and detecting generated light over the course of one hour using cooled charge coupled device camera (FIG. 2).
Human fibrosracoma cell line HT1080 stably expressing GFP2-RLuc8 fusion protein was grown in Dulbecco's modified Eagle high glucose medium (DMEM, Invitrogen, Carlsbad, Calif.) supplemented with 10% fetal bovine serum (FBS), 1% penicillin-streptomycin and 500 μg/mL Zeocin™ (Invitrogen). One day before the luminescence study, 10 000 cells were plated in the 96 well plates (Corning Incorporated, Lowell, Mass.). After the removal of the medium 100 μL of the 5 μM solution of BDC in PBS and 60 μM solution of BDC derivatives in DMSO were added and luminescence measured every five minutes during one hour using an open filter setting. The acquisition time was 10 sec. Images were acquired using a cooled charged-coupled device (CCD) camera IVIS 50 (Caliper Life Sciences, Hopkinton, Mass.) and analyzed using Living Image® software version 2.50.1 (Caliper Life Sciences, Hopkinton, Mass.). Region of interest were drawn, and maximum radiance used as the measure of luminescence. The measurements were done in triplicates.

Sequence of HT1080 cells stably expressing the GFP2-RLuc8 fusion protein (P27652 whole entry A55T/C124A/S130A/K136R/A143M/M185V/M253L/S287L, the tested form may be a part): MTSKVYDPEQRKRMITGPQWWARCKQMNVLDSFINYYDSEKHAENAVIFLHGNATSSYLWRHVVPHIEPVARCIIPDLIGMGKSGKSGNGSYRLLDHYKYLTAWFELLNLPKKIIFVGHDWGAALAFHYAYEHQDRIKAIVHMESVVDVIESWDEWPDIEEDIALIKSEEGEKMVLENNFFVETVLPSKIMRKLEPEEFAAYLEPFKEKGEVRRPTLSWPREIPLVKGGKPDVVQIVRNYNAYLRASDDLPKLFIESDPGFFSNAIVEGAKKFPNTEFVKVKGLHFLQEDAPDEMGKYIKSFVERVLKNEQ

Compound | signal half-life (time required for the initial light flux to fall to its half-value) (5 μM BDC) [min] | rate of the bioluminescent reaction / light signal decay (in words) (over one hour) | signal half-life (time required for the initial light flux to fall to its half-value) | intensity of the light signal among the four derivatives | further results
O=c1c(Cc2ccccc2)nc2c(Cc3ccccc3)[nH]c(-c3ccccc3)cn1-2 [BDC, bisdeoxycoelenterazine] | 5 | – | – | – | loss of initial light emission (at the 15 minute time point): ~75%
CC(C)(C)OC(=O)Oc1c(Cc2ccccc2)nc2c(Cc3ccccc3)nc(-c3ccccc3)cn12 [compound 8, O-Boc-bisdeoxycoelenterazine] | ~50 | remained fairly stable over one hour | – | – | time of peak light emission after exposure to the RLUC8 expressing cells: 15 min
acetoxymethyl-bisdeoxycoelenterazine [compound 9] | – | slower bioluminescent reactions compared to their ester counterparts | over one | – | delay of the emergence of the maximum light signal compared to the parent BDC: 5 min; rate of the bioluminescent reaction / light signal decay (in words) (over one hour, listed as acetoxymethyl-BDC): slowly decayed with time
acetyl-bisdeoxycoelenterazine [compound 7] | – | fast light signal decay, similar to BDC | – | highest light signal | –
pivaloyloxymethyl-bisdeoxycoelenterazine [compound 10] | – | slower bioluminescent reactions compared to their ester counterparts | over one | lowest | observable signal 24 hours after exposure to the enzyme (24 hours, FIG. 3B): the only observable signal 24 hours after exposure to the enzyme came from it; light signal as share of the maximum intensity (lowest value reached) (over one hour): ≥ 88%; rate of the bioluminescent reaction / light signal decay (in words) (over one hour, listed as pivaloyloxymethyl-BDC): slowest bioluminescent reaction
